Data: patent US11064704B2, “Natural product formulations with improved residual insect repellent/deterrent activity” (University of Mississippi, priority 2016, dated 2021)

Tests used:
mosquitoes = experiment: in vivo direct skin application bioassay
Procedure: Direct skin application bioassays were conducted by using a powder-free latex glove (Diamond Grip, Microflex Corporation, Reno, Nev.). An opening of 3×4 cm was cut through the glove to fit on dorsal surface of the hand (FIG. 1). After wearing the glove, a wristband was used to avoid the biting on the hand near the border of the glove. Approximately, 500 (±5%), consisting primarily of females were transferred to a test cage (45×45×45 cm) using an aspirator. A series of dosages were tested to determine MED for repellency as well as residual activity against mosquitoes. A single test consisted of covering the hand of a volunteer with a powder-free latex glove and treating 12 cm^2 surface area, cut through the glove, on dorsal surface of the hand. Marked skin surface area was treated with the test compound in 50 μl of total volume. Because of constrain of man power, only one volunteer who was provided with a written informed consent participated in this study. A protocol approved by the University of Mississippi Human Use Institutional Review Board (IRB protocol #15-070) was followed.
The test started when the hand treated (3×4 cm area cut through the glove on the dorsal surface) with a test compound was inserted into the mosquito cage. […] Any treatment with […] females biting during 1 min test period was considered as “passed” whereas a treatment with ≥5 bites out of 500 mosquitoes was considered as “failed”. In case of passing the next lower and in case of failure next higher serial dose was tested to reach MED. Additionally, data on the residual repellent activity was recorded by exposing the treatments to the females after every 30 minutes until the treatment failed. Carrot essential oil, carotol and DEET and the mixtures were tested.
Direct skin application bioassays were conducted by using a powder-free latex glove (Diamond Grip™, Microflex Corporation, Reno, Nev.). An opening of 3×4 cm was cut through the glove to fit on the dorsal surface of the hand. After donning the glove, a wristband was used to avoid biting on the hand near the border of the glove. Approximately 500 (±5%) mosquitoes, consisting primarily of females, were transferred to a test cage (45×45×45 cm) using an aspirator. A series of dosages were tested to determine MED for repellency as well as residual activity against mosquitoes.
A single test consisted of covering the hand of a volunteer with a powder-free latex glove and treating a 12 cm^2 surface area, cut through the glove, on the dorsal surface of the hand. Marked skin surface area was treated with the test compound in 50 μl of total volume. Because of constraints of man power, only one volunteer who was provided with a written informed consent participated in this study. A protocol approved by the University of Mississippi Human Use Institutional Review Board (IRB Protocol #15-070) was followed.
The test started when the hand treated (3×4 cm area cut through the glove on the dorsal surface) with a test compound was inserted into the mosquito cage. […] Any treatment with ≤5 females biting during the 1 min test period was considered as “passed”, whereas a treatment with ≥5 bites out of 500 mosquitoes was considered as “failed”. In case of passing, the next lower, and in case of failure, the next higher, serial dose was tested to reach MED. Additionally, data on the residual repellent activity were recorded by exposing the treatments to the females after every 30 minutes until the treatment failed. Carrot seed essential oil, carotol, geranium and lemon Eucalyptus essential oils, DEET, picaridin and the mixtures were tested.

Aedes aegypti females = experiment: in vitro A&K (Ali and Khan) repellent bioassay; format: in vivo; settings: for residual repellent activity: time post treatment within range of MED: 11.7 μg/cm^2; for residual repellent activity: time post treatment up to which active / after which MED limit crossed: 23.4 μg/cm^2
Description: The A&K (Ali and Khan) bioassay system is based on the concept that the mosquitoes are attracted to warm temperatures, and this system uses warm temperature to serve as stimulus for landing and feeding. The details of the A&K bioassay systems are given in Ali et al. (2017).
In summary, this in vitro system consisted of a 30×30×30 cm collapsible aluminum cage (Model 1450B, BioQuip Products, 2321 Gladwick Street, Rancho Dominguez, Calif. 90220, USA) with metal screens. On one panel of the cage, metal screen was replaced with a clear acrylic transparent sheet. […] The blood box had three sides covered with acrylic sheet while the front side was open to insert the feeding device. […] The sliding door served to contain the females inside the cage when the feeding device was pulled out for loading the treatment. This door was slid open when the feeding device was pushed in during the bioassay to expose the females to the treatment.
The feeding device had one 3×4 cm rectangular reservoir that contained the feeding solution. The feeding device was connected to the water circulator. The reservoir of the feeding device with feeding solution was covered with a chemical treated collagen sheet. To observe the landing and feeding of female mosquitoes, feeding solution in the reservoir was heated to match the human body temperature using a water circulator which was set at 37° C. The feeding solution had 3-4° C. higher temperature than the solid platform, and this increased temperature of the feeding solution became a better source of attraction and preference for the mosquitoes than the other parts of the feeding device.
The rectangular reservoir of the feeding device was filled with the CPDA 1+ATP solution having a few drops of green fluorescent traceable water-soluble dye to serve as a feeding source. A test was started when the 3×4 cm marked areas of collagen were treated with the desired chemical in a volume of 50 μL/[…]. The treated collagen sheet was then secured on the reservoir using a thin layer of high vacuum grease (Dow Corning Corporation, Midland, Mich. 48686). The feeding device was then pushed into the blood box and the sliding door was opened to expose females to the treatment.
Stock solutions were made in ethanol. All the dilutions were made in EtOH and applied in a volume of 50 μL covering […] of the collagen sheet. Minimum effective dosage (MED) values in this in vitro bioassay were determined using a method described by Katritzky et al. (2010).
The cage contained 200±10, 8-18 day old female mosquitoes. The number of mosquitoes landing and biting were recorded visually for 1 minute. Three or four cages were used at a time, and one treatment was evaluated in a single cage. The minimum dose at which 2 or less mosquitoes (i.e. less than or equal to 1% of 200 females in the cage) started feeding in 1 minute was the minimum effective dose (“MED”). Continuous exposure of the mosquitoes in the cage can result in reduced landing and biting, therefore, 3-4 cages were used and only one replication was completed for each chemical in a single cage. To ensure accuracy of the treatment, rectangular areas of (3×4 cm (12 cm^2) or 7.5×4 cm (30 cm^2) were marked on the collagen that matched the measurement of the rectangular liquid reservoirs. Treatments were applied in a volume of 50 μL (12 cm^2 area) or 107 μL (30 cm^2 area). Treated collagen sheets were secured on a feeding reservoir containing CPDA-1+ATP solution using a thin layer of grease (Dow Corning Corp, Midland, Mich.). The feeding device was pushed inside the blood box and the sliding door was […] to expose the females to the treatment.
To ensure the normal activity (≥10% landing), control treatment was repeated after every 5 replications, and the bioassay was stopped if the response was less than the control. The data is presented as MED values with the mean percentage biting (±SEM) in parenthesis. […]

[1] = 12 cm^2 surface area, Table 7/FIG. 7
[2] = Table 13/FIG. 13, mixtures 6.25+6.25 μg/cm^2 versus individual applications, species not given

Compound | residual activity: time post application at which MED level crossed (mosquitoes; 1% rate of application) [h] | residual activity: time post application at which MED level crossed (mosquitoes; 2% rate of application) [h] | residual repellent activity: time post treatment within range of MED (Aedes aegypti females) | residual repellent activity: time post treatment up to which active / after which MED limit crossed (Aedes aegypti females) [min] | minimum effective dose (MED) (Aedes aegypti females; [1]) [μg/cm^2] | minimum effective dose (MED) (Aedes aegypti females; [2]) [μg/cm^2] | residual activity: time post application at which MED reached (mosquitoes; 8% application rate) [h] | residual activity: time post application at which MED reached/crossed (mosquitoes; 12.5% application rate) [h] | residual activity: time post application at which MED reached (mosquitoes; 25% application rate) [h] | residual activity: time post application at which MED reached (mosquitoes; 50% application rate) [h] | residual repellent activity: time post treatment up to which active (Aedes aegypti females; 46.9 μg/cm^2) [min] | repellent activity (Aedes aegypti females; compared with DEET)
CCN(CC)C(=O)c1cccc(C)c1 [DEET, N,N-diethyl-meta-toluamide, reference compound] | 1 | 1 | 30 min | 120 | 11.7 | 25 | – | – | – | – | – | –
CC1=CC[C@]2(C)CC[C@@H](C(C)C)[C@]2(O)CC1 [carotol] | – | – | failed | 60 | 11.7 | 25 | 1.5 | 1.5 | 2 | 2.5 | 120 | comparable to DEET
